Experimental data reported in US4866038A, “Method of stimulating integumental melanocytes by topical application of analogs of alpha-msh” (University Patents, Inc., priority 1988, dated 1989).
Non-standard residues stand in square brackets, D forms with d. Residues, ends and D or L forms follow the SMILES beside them. Phe(4-NO2) = N[C@@H](Cc1ccc([N+](=O)[O-])cc1)C(=O)O; dPhe(4-NO2) = N[C@H](Cc1ccc([N+](=O)[O-])cc1)C(=O)O; dPhg = N[C@@H](C(=O)O)c1ccccc1; Phg = N[C@H](C(=O)O)c1ccccc1; Nle = CCCC[C@H](N)C(=O)O

Key:
[1] = system: lizard (Anolis caroliniensis); type: cell-based
Method: (§1) Biological effect on in vivo and in vitro melanosome dispersion was examined using the frog (Rana pipiens) and the lizard (Anolis caroliniensis). [See Hadley et al., Science 213:1025-1027(1981)]; similar examinations were conducted with respect to the duration of its ability to stimulate melanosome dispersion in vitro using the skin bioassay as described in Shimume, Endrochrinology, 54:553-560(1954). The in vitro results are depicted in Table I.

frog (Rana pipiens) = type: cell-based
Method: as §1

[2] = system: TA-98 strain of S. typhimurium; assay: Ames microbacterial assay; details: for […] PLATE WITHOUT S-9: TA-98, spontaneous revertants subtracted
Method: The Ames microbacterial assay was used for these tests which were performed both with and without a microsomal enzyme/NADPH generating system. Briefly, this test measures the number of reverse mutations which occur in special histidine-dependent strains of Salmonella typhimurium. Positives (mutations) are scored as the number of revertant cells which are able to form colonies in a histidine-deficient growth medium after exposure to a mutagenic substance.
All substances were dissolved in sterile 0.9% sodium chloride (without preservatives) to concentrations of 10^-2, 10^-3 and 10^-4 Molar. The TA-98 strain of S. typhimurium was used and experiments were performed with and without exposure to S-9 rat liver microsomal enzymes and an NADPH generating system. This enzyme cocktail can metabolically activate some compounds to mutagenic species. In addition to the melanotropins, Doxorubicin (Adriamycin™) was also simultaneously tested. […] It was thus included to act as a positive control. […] For the actual evaluation of revertants, the identity of the specific test compound was blinded.

Row | Compound | Relative Potency Lizard [1] | Relative Potency Frog (frog (Rana pipiens)) | also measured
1 | CCCC[C@H](NC(C)=O)C(=O)N[C@@H](CCC(=O)O)C(=O)N[C@@H](Cc1c[nH]cn1)C(=O)N[C@@H](C)C(=O)N[C@@H](CCCNC(=N)N)C(=O)N[C@@H](Cc1c[nH]c2ccccc12)C(=O)NCC(=O)N[C@@H](CCCCN)C(N)=O [Ac--[Nle^4 --Ala^7]--alpha-MSH4-11 --NH2] (Ac-[Nle]EHARWGK-NH2) | 0.009 | 0.02 | 
2 | CCCC[C@H](NC(C)=O)C(=O)N[C@@H](CCC(=O)O)C(=O)N[C@@H](Cc1c[nH]cn1)C(=O)N[C@H](C)C(=O)N[C@@H](CCCNC(=N)N)C(=O)N[C@@H](Cc1c[nH]c2ccccc12)C(=O)NCC(=O)N[C@@H](CCCCN)C(N)=O [Ac--[Nle^4 --D-Ala^7]--alpha-MSH4-11 --NH2] (Ac-[Nle]EH[dA]RWGK-NH2) | 0.020 | 0.000080 | 
3 | CCCC[C@H](NC(C)=O)C(=O)N[C@@H](CCC(=O)O)C(=O)N[C@@H](Cc1c[nH]cn1)C(=O)N[C@@H](Cc1ccccc1)C(=O)N[C@H](CCCNC(=N)N)C(=O)N[C@@H](Cc1c[nH]c2ccccc12)C(=O)NCC(=O)N[C@@H](CCCCN)C(N)=O [Ac--[Nle^4 --D-Arg^8]--alpha-MSH4-11 --NH2] (Ac-[Nle]EHF[dR]WGK-NH2) | 0.0022 | 0.000016 | 
4 | CCCC[C@H](NC(C)=O)C(=O)N[C@@H](CCC(=O)O)C(=O)N[C@H](Cc1c[nH]cn1)C(=O)N[C@H](Cc1ccccc1)C(=O)N[C@@H](CCCNC(=N)N)C(=O)N[C@@H](Cc1c[nH]c2ccccc12)C(=O)NCC(=O)N[C@@H](CCCCN)C(N)=O [Ac--[Nle^4 --D-His^6 --D-Phe^7]--alpha-MSH4-11 --NH2] (Ac-[Nle]E[dH][dF]RWGK-NH2) | 0.053 | 0.0006 | 
5 | CCCC[C@H](NC(C)=O)C(=O)N[C@@H](CCC(=O)O)C(=O)N[C@H](Cc1c[nH]cn1)C(=O)N[C@@H](Cc1ccccc1)C(=O)N[C@@H](CCCNC(=N)N)C(=O)N[C@@H](Cc1c[nH]c2ccccc12)C(=O)NCC(=O)N[C@@H](CCCCN)C(N)=O [Ac--[Nle^4 --D-His^6]--alpha-MSH4-11 --NH2] (Ac-[Nle]E[dH]FRWGK-NH2) | 0.002 | 0.0014 | 
6 | CCCC[C@H](NC(C)=O)C(=O)N[C@@H](CCC(=O)O)C(=O)N[C@@H](Cc1c[nH]cn1)C(=O)N[C@H](Cc1ccccc1)C(=O)N[C@H](CCCNC(=N)N)C(=O)N[C@@H](Cc1c[nH]c2ccccc12)C(=O)NCC(=O)N[C@@H](CCCCN)C(N)=O [Ac--[Nle^4 --D-Phe^7 --D-Arg^8]--alpha-MSH4-11 --NH2] (Ac-[Nle]EH[dF][dR]WGK-NH2) | 0.0022 | 0.00010 | 
7 | CCCC[C@H](NC(C)=O)C(=O)N[C@@H](CCC(=O)O)C(=O)N[C@@H](Cc1c[nH]cn1)C(=O)N[C@H](Cc1ccccc1)C(=O)N[C@@H](CCCNC(=N)N)C(=O)N[C@H](Cc1c[nH]c2ccccc12)C(N)=O [Ac--[Nle^4 --D-Phe^7 --D-Trp^9]--alpha-MSH4-9 --NH2] (Ac-[Nle]EH[dF]R[dW]-NH2) | 3.8 | 0.03 | 
8 | CCCC[C@H](NC(C)=O)C(=O)N[C@@H](CCC(=O)O)C(=O)N[C@@H](Cc1c[nH]cn1)C(=O)N[C@H](Cc1ccccc1)C(=O)N[C@@H](CCCNC(=N)N)C(=O)N[C@H](Cc1c[nH]c2ccccc12)C(=O)NCC(=O)N[C@@H](CCCCN)C(N)=O [Ac--[Nle^4 --D-Phe^7 --D-Trp^9]--alpha-MSH4-11 --NH2] (Ac-[Nle]EH[dF]R[dW]GK-NH2) | 10.5 | 3.17 | 
9 | CCCC[C@H](NC(C)=O)C(=O)N[C@@H](CCC(=O)O)C(=O)N[C@@H](Cc1c[nH]cn1)C(=O)N[C@H](Cc1ccccc1)C(=O)N[C@@H](CCCNC(=N)N)C(=O)N[C@@H](Cc1c[nH]c2ccccc12)C(=O)NCC(=O)N[C@@H](CCCCN)C(N)=O [Ac--[Nle^4 --D-Phe^7]--alpha-MSH4-11 --NH2] (Ac-[Nle]EH[dF]RWGK-NH2) | 8.0 | 0.012 | 
10 | CCCC[C@H](NC(C)=O)C(=O)N[C@@H](CCC(=O)O)C(=O)N[C@@H](Cc1c[nH]cn1)C(=O)N[C@@H](C(=O)N[C@@H](CCCNC(=N)N)C(=O)N[C@@H](Cc1c[nH]c2ccccc12)C(=O)NCC(=O)N[C@@H](CCCCN)C(N)=O)c1ccccc1 [Ac--[Nle^4 --D-Plg^7]--alpha-MSH4-11 --NH2] (Ac-[Nle]EH[dPhg]RWGK-NH2) | 0.0005 | 0.0003 | 
11 | CCCC[C@H](NC(C)=O)C(=O)N[C@@H](CCC(=O)O)C(=O)N[C@@H](Cc1c[nH]cn1)C(=O)N[C@@H](Cc1ccccc1)C(=O)N[C@@H](CCCNC(=N)N)C(=O)N[C@H](Cc1c[nH]c2ccccc12)C(=O)NCC(=O)N[C@@H](CCCCN)C(N)=O [Ac--[Nle^4 --D-Trp^9]--alpha-MSH4-11 --NH2] (Ac-[Nle]EHFR[dW]GK-NH2) | 1.7 | 0.61 | 
12 | CCCC[C@H](NC(C)=O)C(=O)N[C@@H](CCC(=O)O)C(=O)N[C@@H](Cc1c[nH]cn1)C(=O)N[C@H](Cc1ccc([N+](=O)[O-])cc1)C(=O)N[C@@H](CCCNC(=N)N)C(=O)N[C@@H](Cc1c[nH]c2ccccc12)C(=O)NCC(=O)N[C@@H](CCCCN)C(N)=O [Ac--[Nle^4 --D-pNO2 Phe^7]-- alpha-MSH4-11 --NH2] (Ac-[Nle]EH[dPhe(4-NO2)]RWGK-NH2) | 4.0 | 0.10 | 
13 | CCCC[C@H](NC(C)=O)C(=O)N[C@@H](CCC(=O)O)C(=O)N[C@@H](Cc1c[nH]cn1)C(=O)NCC(=O)N[C@@H](CCCNC(=N)N)C(=O)N[C@@H](Cc1c[nH]c2ccccc12)C(=O)NCC(=O)N[C@@H](CCCCN)C(N)=O [Ac--[Nle^4 --Gly^7]--alpha-MSH4-11 --NH2] (Ac-[Nle]EHGRWGK-NH2) | 0.0005 | 0.005 | 
14 | CCCC[C@H](NC(C)=O)C(=O)N[C@@H](CCC(=O)O)C(=O)N[C@@H](Cc1c[nH]cn1)C(=O)N[C@H](C(=O)N[C@@H](CCCNC(=N)N)C(=O)N[C@@H](Cc1c[nH]c2ccccc12)C(=O)NCC(=O)N[C@@H](CCCCN)C(N)=O)c1ccccc1 [Ac--[Nle^4 --Plg^7]--alpha-MSH4-11 --NH2] (Ac-[Nle]EH[Phg]RWGK-NH2) | 0.14 | 0.14 | 
15 | CCCC[C@H](NC(C)=O)C(=O)N[C@@H](CCC(=O)O)C(=O)N[C@@H](Cc1c[nH]cn1)C(=O)N[C@@H](Cc1ccc(O)cc1)C(=O)N[C@@H](CCCNC(=N)N)C(=O)N[C@@H](Cc1c[nH]c2ccccc12)C(=O)NCC(=O)N[C@@H](CCCCN)C(N)=O [Ac--[Nle^4 --Tyr^7]--alpha-MSH4-11 --NH2] (Ac-[Nle]EHYRWGK-NH2) | 0.0090 |  | 
16 | CCCC[C@H](NC(C)=O)C(=O)N[C@@H](CCC(=O)O)C(=O)N[C@@H](Cc1c[nH]cn1)C(=O)N[C@@H](Cc1ccccc1)C(=O)N[C@@H](CCCNC(=N)N)C(=O)N[C@@H](Cc1c[nH]c2ccccc12)C(N)=O [Ac--[Nle^4 --alpha-MSH4-9 --NH2] (Ac-[Nle]EHFRW-NH2) | 0.18 | 0.0007 | 
17 | CCCC[C@H](NC(C)=O)C(=O)N[C@@H](CCC(=O)O)C(=O)N[C@@H](Cc1c[nH]cn1)C(=O)N[C@@H](Cc1ccccc1)C(=O)N[C@@H](CCCNC(=N)N)C(=O)N[C@@H](Cc1c[nH]c2ccccc12)C(=O)NCC(=O)N[C@@H](CCCCN)C(N)=O [Ac--[Nle^4]-alpha-MSH4-11 --NH2] (Ac-[Nle]EHFRWGK-NH2) | 1.54 | 0.0019 | 
18 | CCCC[C@H](NC(C)=O)C(=O)N[C@@H](CCC(=O)O)C(=O)N[C@@H](Cc1c[nH]cn1)C(=O)N[C@@H](Cc1ccc([N+](=O)[O-])cc1)C(=O)N[C@@H](CCCNC(=N)N)C(=O)N[C@@H](Cc1c[nH]c2ccccc12)C(=O)NCC(=O)N[C@@H](CCCCN)C(N)=O [Ac--[Nle^ 4 --pNO2 Phe^7]--alpha-MSH4-11 --NH2] (Ac-[Nle]EH[Phe(4-NO2)]RWGK-NH2) | 0.20 | 0.0009 | 
19 | COc1cccc2c1C(=O)c1c(O)c3c(c(O)c1C2=O)C[C@@](O)(C(=O)CO)C[C@@H]3O[C@H]1C[C@H](N)[C@H](O)[C@H](C)O1 [Adriamycin, Doxorubicin] |  |  | […] PLATE WITHOUT S-9 ([2]; 10 µg/ml): 230; […] PLATE WITHOUT S-9 ([2]; 100 µg/ml): 1940; […] PLATE WITHOUT S-9 ([2]; 1.0 g/ml): 0; mutagenicity in vitro ([2]; TA-98, with and without S-9): significantly mutagenic
